# Results published in ChEMBL document CHEMBL1201861, “Genomics of Drug Sensitity in Cancer screening data, Wellcome Trust Sanger Institute”.
# Key:
# Assay in all cases: cells
# TGBC24TKB = type: functional, cell-based, Homo sapiens; conditions: Homo sapiens, TGBC24TKB;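 also: growth inhibition of human TGBC24TKB cells, read out with a cell viability assay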
# Description: SANGER: Inhibition of human TGBC24TKB cell growth in a cell viability assay.
# TGW = type: functional, cell-based, Homo sapiens; conditions: Homo sapiens, TGW;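 also: growth inhibition of human TGW cells, read out with a cell viability assay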
# Description: SANGER: Inhibition of human TGW cell growth in a cell viability assay.
# LU-139 = type: functional, cell-based, Homo sapiens; conditions: Homo sapiens, LU-139
# Description: SANGER: Inhibition of human LU-139 cell growth in a cell viability assay.
# NCI-H82 = type: functional, cell-based, Homo sapiens; conditions: Homo sapiens, NCI-H82;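 also: growth inhibition of NCI-H82 cells, measured with a cell viability readout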
# Description: SANGER: Inhibition of human NCI-H82 cell growth in a cell viability assay.
# NCI-H1650 = type: functional, cell-based, Homo sapiens; conditions: Homo sapiens, NCI-H1650;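 also: growth inhibition of human NCI-H1650 cells measured by a cell viability assay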
# Description: SANGER: Inhibition of human NCI-H1650 cell growth in a cell viability assay.
# KARPAS-299 = type: functional, cell-based, Homo sapiens; conditions: Homo sapiens, KARPAS-299
# Description: SANGER: Inhibition of human KARPAS-299 cell growth in a cell viability assay.
# NB10 = type: functional, cell-based, Homo sapiens; conditions: Homo sapiens, NB10;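 also: growth inhibition of NB10 cells, read out by a cell viability assay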
# Description: SANGER: Inhibition of human NB10 cell growth in a cell viability assay.
# EW-18 = type: functional, cell-based, Homo sapiens; conditions: Homo sapiens, EW-18;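 also: growth inhibition of EW-18 cells, read out by a cell viability assay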
# Description: SANGER: Inhibition of human EW-18 cell growth in a cell viability assay.
# D-502MG = type: functional, cell-based, Homo sapiens; conditions: Homo sapiens, D-502MG
# Description: SANGER: Inhibition of human D-502MG cell growth in a cell viability assay.
# OMC-1 = type: functional, cell-based, Homo sapiens; conditions: Homo sapiens, OMC-1;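 also: growth inhibition of the OMC-1 cell line, measured by a cell viability assay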
# Description: SANGER: Inhibition of human OMC-1 cell growth in a cell viability assay.
# SCH = type: functional, cell-based, Homo sapiens; conditions: Homo sapiens, SCH;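 also: growth inhibition of human SCH cells, read out in a cell viability assay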
# Description: SANGER: Inhibition of human SCH cell growth in a cell viability assay.
# BB30-HNC = type: functional, cell-based, Homo sapiens; conditions: Homo sapiens, BB30-HNC;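 also: growth inhibition of the cultured cell line, read out by a cell viability assay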
# Description: SANGER: Inhibition of human BB30-HNC cell growth in a cell viability assay.
# DJM-1 = type: functional, cell-based, Homo sapiens; conditions: Homo sapiens, DJM-1;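 also: growth inhibition of human DJM-1 cells, read out by a cell viability assay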
# Description: SANGER: Inhibition of human DJM-1 cell growth in a cell viability assay.
# SJSA-1 = type: functional, cell-based, Homo sapiens; conditions: Homo sapiens, SJSA-1;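 also: growth inhibition of human SJSA-1 cells, read out through a cell viability measurement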
# Description: SANGER: Inhibition of human SJSA-1 cell growth in a cell viability assay.
# COR-L88 = type: functional, cell-based, Homo sapiens; conditions: Homo sapiens, COR-L88;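 also: growth inhibition of COR-L88 cells, read out with a cell viability assay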
# Description: SANGER: Inhibition of human COR-L88 cell growth in a cell viability assay.
# NEC8 = type: functional, cell-based, Homo sapiens; conditions: Homo sapiens, NEC8;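 also: growth inhibition of human NEC8 cells, read out by a cell viability assay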
# Description: SANGER: Inhibition of human NEC8 cell growth in a cell viability assay.
# KNS-42 = type: functional, cell-based, Homo sapiens; conditions: Homo sapiens, KNS-42;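 also: growth inhibition of KNS-42 cells, read out with a cell viability assay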
# Description: SANGER: Inhibition of human KNS-42 cell growth in a cell viability assay.
# SNU-5 = type: functional, cell-based, Homo sapiens; conditions: Homo sapiens, SNU-5;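 also: cell viability readout used to measure growth inhibition in human NCI-SNU-5 cells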
# Description: SANGER: Inhibition of human NCI-SNU-5 cell growth in a cell viability assay.
# MHH-NB-11 = type: functional, cell-based, Homo sapiens; conditions: Homo sapiens, MHH-NB-11;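 also: growth inhibition of human MHH-NB-11 cells, read out by a cell viability assay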
# Description: SANGER: Inhibition of human MHH-NB-11 cell growth in a cell viability assay.
# ATN-1 = type: functional, cell-based, Homo sapiens; conditions: Homo sapiens, ATN-1;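 also: growth inhibition of human ATN-1 cells, read out with a cell viability assay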
# Description: SANGER: Inhibition of human ATN-1 cell growth in a cell viability assay.
# ALL-PO = type: functional, cell-based, Homo sapiens; conditions: Homo sapiens, ALL-PO;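 also: growth inhibition of ALL-PO cells, read out by a cell viability assay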
# Description: SANGER: Inhibition of human ALL-PO cell growth in a cell viability assay.
# ES5 = type: functional, cell-based, Homo sapiens; conditions: Homo sapiens, ES5;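 also: growth inhibition of human ES5 cells, read out by a cell viability assay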
# Description: SANGER: Inhibition of human ES5 cell growth in a cell viability assay.
# LS-1034 = type: functional, cell-based, Homo sapiens; conditions: Homo sapiens, LS-1034
# Description: SANGER: Inhibition of human LS-1034 cell growth in a cell viability assay.
# LOX IMVI = type: functional, cell-based, Homo sapiens; conditions: Homo sapiens, LOX IMVI
# Description: SANGER: Inhibition of human LOXIMVI cell growth in a cell viability assay.
# LB831-BLC = type: functional, cell-based, Homo sapiens; conditions: Homo sapiens, LB831-BLC;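 also: growth inhibition of LB831-BLC cells, read out with a cell viability assay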
# Description: SANGER: Inhibition of human LB831-BLC cell growth in a cell viability assay.
# DMS-114 = type: functional, cell-based, Homo sapiens; conditions: Homo sapiens, DMS-114
# Lu-65 = type: functional, cell-based, Homo sapiens; conditions: Homo sapiens, Lu-65;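 also: growth inhibition of Lu-65 cancer cells, read out by a cell viability assay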
# Description: SANGER: Inhibition of human LU-65 cell growth in a cell viability assay.
# KM-H2 = type: functional, cell-based, Homo sapiens; conditions: Homo sapiens, KM-H2;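 also: growth inhibition of KM-H2 cells, read out by a cell viability assay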
# Description: SANGER: Inhibition of human KM-H2 cell growth in a cell viability assay.
# HCC1187 = type: functional, cell-based, Homo sapiens; conditions: Homo sapiens, HCC1187;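 also: growth inhibition of HCC1187 cells, read out with a cell viability assay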
# Description: SANGER: Inhibition of human HCC1187 cell growth in a cell viability assay.
# SNB-75 = type: functional, cell-based, Homo sapiens; conditions: Homo sapiens, SNB-75;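 also: cell viability assay measuring growth inhibition of human SNB-75 cells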
# Description: SANGER: Inhibition of human SNB75 cell growth in a cell viability assay.
# RS4-11 = type: functional, cell-based, Homo sapiens; conditions: Homo sapiens, RS4-11;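 also: growth inhibition of RS4-11 cells, read out by a cell viability assay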
# Description: SANGER: Inhibition of human RS4-11 cell growth in a cell viability assay.
# K5 = type: functional, cell-based, Homo sapiens; conditions: Homo sapiens, K5
# Description: SANGER: Inhibition of human K5 cell growth in a cell viability assay.
# KE-37 = type: functional, cell-based, Homo sapiens; conditions: Homo sapiens, KE-37;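 also: growth inhibition of KE-37 cells, read out with a cell viability assay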
# Description: SANGER: Inhibition of human KE-37 cell growth in a cell viability assay.
# AM-38 = type: functional, cell-based, Homo sapiens; conditions: Homo sapiens, AM-38;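 also: growth inhibition of AM-38 cells of human origin, read out by a cell viability assay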
# Description: SANGER: Inhibition of human AM-38 cell growth in a cell viability assay.
# NCI-H1648 = type: functional, cell-based, Homo sapiens; conditions: Homo sapiens, NCI-H1648;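 also: cell viability assay measuring inhibition of NCI-H1648 cell growth, from the Sanger screening data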
# Description: SANGER: Inhibition of human NCI-H1648 cell growth in a cell viability assay.
# OVCAR-4 = type: functional, cell-based, Homo sapiens; conditions: Homo sapiens, OVCAR-4;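 also: growth inhibition of human OVCAR-4 cells, measured with a cell viability assay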
# Description: SANGER: Inhibition of human OVCAR-4 cell growth in a cell viability assay.
# HuTu80 = type: functional, cell-based, Homo sapiens, HUTU-80; conditions: Homo sapiens, HuTu80;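 also: growth inhibition of HuTu80 human cells, determined with a cell viability readout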
# Description: SANGER: Inhibition of human HUTU-80 cell growth in a cell viability assay.
# MOLT-16 = type: functional, cell-based, Homo sapiens; conditions: Homo sapiens, MOLT-16;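 also: growth inhibition of human MOLT-16 cells, read out with a cell viability assay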
# Description: SANGER: Inhibition of human MOLT-16 cell growth in a cell viability assay.
# MSTO-211H = type: functional, cell-based, Homo sapiens; conditions: Homo sapiens, MSTO-211H
# Description: SANGER: Inhibition of human MSTO-211H cell growth in a cell viability assay.
# KALS-1 = type: functional, cell-based, Homo sapiens; conditions: Homo sapiens, KALS-1;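 also: growth inhibition of KALS-1 cells, determined with a cell viability assay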
# Description: SANGER: Inhibition of human KALS-1 cell growth in a cell viability assay.
# LB771-HNC = type: functional, cell-based, Homo sapiens; conditions: Homo sapiens, LB771-HNC;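 also: growth inhibition of LB771-HNC human cells, read out with a cell viability assay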
# Description: SANGER: Inhibition of human LB771-HNC cell growth in a cell viability assay.
# Ramos-2G6-4C10 = type: functional, cell-based, Homo sapiens; conditions: Homo sapiens, Ramos-2G6-4C10;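 also: growth inhibition of the cell line, measured by a cell viability read-out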
# Description: SANGER: Inhibition of human Ramos-2G6-4C10 cell growth in a cell viability assay.
# HH = type: functional, cell-based, Homo sapiens; conditions: Homo sapiens, HH
# Description: SANGER: Inhibition of human HH cell growth in a cell viability assay.
# GI-1 = type: functional, cell-based, Homo sapiens; conditions: Homo sapiens, GI-1;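 also: growth inhibition of human GI-1 cells, measured with a cell viability readout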
# Description: SANGER: Inhibition of human GI-1 cell growth in a cell viability assay.
# COLO-824 = type: functional, cell-based, Homo sapiens; conditions: Homo sapiens, COLO-824
# Description: SANGER: Inhibition of human COLO-824 cell growth in a cell viability assay.
# TE-11 = type: functional, cell-based, Homo sapiens; conditions: Homo sapiens, TE-11;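 also: growth inhibition of human TE-11 cells, read out by a cell viability assay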
# Description: SANGER: Inhibition of human TE-11 cell growth in a cell viability assay.
# NCI-H226 = type: functional, cell-based, Homo sapiens; conditions: Homo sapiens, NCI-H226;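 also: cell viability read-out used to gauge growth inhibition of the cells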
# Description: SANGER: Inhibition of human NCI-H226 cell growth in a cell viability assay.
# LB2518-MEL = type: functional, cell-based, Homo sapiens; conditions: Homo sapiens, LB2518-MEL;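 also: growth inhibition of human LB2518-MEL cells, measured with a cell viability assay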
# Description: SANGER: Inhibition of human LB2518-MEL cell growth in a cell viability assay.
smiles,measurement,setting,value
CC(C)CCN1c2nc(Nc3cc(F)c(O)c(F)c3)ncc2N(C)C(=O)C1C (configuration not stated),IC50,TGBC24TKB,> 5000 nM
same,IC50,TGW,1050 nM
same,IC50,LU-139,850 nM
same,IC50,NCI-H82,> 5000 nM
same,IC50,NCI-H1650,> 5000 nM
same,IC50,KARPAS-299,> 5000 nM
same,IC50,NB10,1780 nM
same,IC50,EW-18,622 nM
same,IC50,D-502MG,3070 nM
same,IC50,OMC-1,> 5000 nM
same,IC50,SCH,> 5000 nM
same,IC50,BB30-HNC,> 5000 nM
same,IC50,DJM-1,4800 nM
same,IC50,SJSA-1,2670 nM
same,IC50,COR-L88,> 5000 nM
same,IC50,NEC8,1700 nM
same,IC50,KNS-42,> 5000 nM
same,IC50,SNU-5,> 5000 nM
same,IC50,MHH-NB-11,> 5000 nM
same,IC50,ATN-1,4420 nM
same,IC50,ALL-PO,> 5000 nM
same,IC50,ES5,2240 nM
same,IC50,LS-1034,> 5000 nM
same,IC50,LOX IMVI,2040 nM
same,IC50,LB831-BLC,3540 nM
same,IC50,DMS-114,4810 nM
same,IC50,Lu-65,> 5000 nM
same,IC50,KM-H2,> 5000 nM
same,IC50,HCC1187,> 5000 nM
same,IC50,SNB-75,> 5000 nM
same,IC50,RS4-11,> 5000 nM
same,IC50,K5,> 5000 nM
same,IC50,KE-37,1590 nM
same,IC50,AM-38,> 5000 nM
same,IC50,NCI-H1648,> 5000 nM
same,IC50,OVCAR-4,> 5000 nM
same,IC50,HuTu80,3670 nM
same,IC50,MOLT-16,> 5000 nM
same,IC50,MSTO-211H,> 5000 nM
same,IC50,KALS-1,> 5000 nM
same,IC50,LB771-HNC,> 5000 nM
same,IC50,Ramos-2G6-4C10,1700 nM
same,IC50,HH,2800 nM
same,IC50,GI-1,3150 nM
same,IC50,COLO-824,4900 nM
same,IC50,TE-11,> 5000 nM
same,IC50,NCI-H226,> 5000 nM
same,IC50,LB2518-MEL,> 5000 nM
CC1(C)CNc2cc(NC(=O)c3cccnc3NCc3ccncc3)ccc21 [MOTESANIB],IC50,TGBC24TKB,> 2000 nM
same,IC50,TGW,> 2000 nM
same,IC50,LU-139,> 2000 nM
same,IC50,NCI-H82,> 2000 nM
same,IC50,NCI-H1650,> 2000 nM
same,IC50,KARPAS-299,> 2000 nM
same,IC50,NB10,> 2000 nM
same,IC50,EW-18,> 2000 nM
same,IC50,D-502MG,> 2000 nM
same,IC50,OMC-1,> 2000 nM
same,IC50,SCH,> 2000 nM
same,IC50,BB30-HNC,> 2000 nM
same,IC50,DJM-1,> 2000 nM
same,IC50,SJSA-1,> 2000 nM
same,IC50,COR-L88,> 2000 nM
same,IC50,NEC8,> 2000 nM
same,IC50,KNS-42,> 2000 nM
same,IC50,SNU-5,> 2000 nM
same,IC50,MHH-NB-11,> 2000 nM
same,IC50,ATN-1,> 2000 nM
same,IC50,ALL-PO,> 2000 nM
same,IC50,ES5,> 2000 nM
same,IC50,LS-1034,> 2000 nM
same,IC50,LOX IMVI,> 2000 nM
same,IC50,LB831-BLC,> 2000 nM
same,IC50,DMS-114,> 2000 nM
same,IC50,Lu-65,> 2000 nM
same,IC50,KM-H2,> 2000 nM
same,IC50,HCC1187,> 2000 nM
same,IC50,SNB-75,> 2000 nM
same,IC50,RS4-11,> 2000 nM
same,IC50,K5,> 2000 nM
same,IC50,KE-37,> 2000 nM
same,IC50,AM-38,> 2000 nM
same,IC50,NCI-H1648,686 nM
same,IC50,OVCAR-4,> 2000 nM
same,IC50,MOLT-16,> 2000 nM
same,IC50,MSTO-211H,> 2000 nM
same,IC50,KALS-1,> 2000 nM
same,IC50,LB771-HNC,> 2000 nM
same,IC50,Ramos-2G6-4C10,> 2000 nM
same,IC50,HH,> 2000 nM
same,IC50,GI-1,> 2000 nM
same,IC50,COLO-824,> 2000 nM
same,IC50,TE-11,> 2000 nM
same,IC50,NCI-H226,> 2000 nM
same,IC50,LB2518-MEL,> 2000 nM
CCN(CC)CCCCNc1ncc2cc(-c3cc(OC)cc(OC)c3)c(NC(=O)NC(C)(C)C)nc2n1 [PD-173074],IC50,TGBC24TKB,> 2000 nM
same,IC50,TGW,> 2000 nM
same,IC50,LU-139,> 2000 nM
same,IC50,NCI-H82,> 2000 nM
same,IC50,NCI-H1650,> 2000 nM
same,IC50,KARPAS-299,> 2000 nM
same,IC50,NB10,> 2000 nM
same,IC50,EW-18,> 2000 nM
same,IC50,D-502MG,> 2000 nM
same,IC50,OMC-1,> 2000 nM
same,IC50,SCH,> 2000 nM
same,IC50,BB30-HNC,> 2000 nM
same,IC50,DJM-1,> 2000 nM
same,IC50,SJSA-1,> 2000 nM
same,IC50,COR-L88,> 2000 nM
same,IC50,NEC8,563 nM
same,IC50,KNS-42,> 2000 nM
same,IC50,SNU-5,> 2000 nM
same,IC50,MHH-NB-11,> 2000 nM
same,IC50,ATN-1,> 2000 nM
same,IC50,ALL-PO,> 2000 nM
same,IC50,ES5,> 2000 nM
same,IC50,LS-1034,> 2000 nM
same,IC50,LOX IMVI,> 2000 nM
same,IC50,LB831-BLC,> 2000 nM
same,IC50,DMS-114,1370 nM
same,IC50,Lu-65,> 2000 nM
same,IC50,KM-H2,> 2000 nM
same,IC50,HCC1187,> 2000 nM
same,IC50,SNB-75,> 2000 nM
same,IC50,RS4-11,1340 nM
same,IC50,K5,> 2000 nM
same,IC50,KE-37,> 2000 nM
same,IC50,AM-38,> 2000 nM
same,IC50,NCI-H1648,> 2000 nM
same,IC50,OVCAR-4,> 2000 nM
same,IC50,MOLT-16,> 2000 nM
same,IC50,MSTO-211H,1470 nM
same,IC50,KALS-1,> 2000 nM
same,IC50,LB771-HNC,> 2000 nM
same,IC50,Ramos-2G6-4C10,> 2000 nM
same,IC50,HH,> 2000 nM
same,IC50,GI-1,> 2000 nM
same,IC50,COLO-824,> 2000 nM
same,IC50,TE-11,> 2000 nM
same,IC50,NCI-H226,> 2000 nM
same,IC50,LB2518-MEL,> 2000 nM
